# Measured values taken from patent US20020090352A1, “Compositions and methods for use in modulating immune system function” (priority 2000, published 2002).
# “Also recorded” adds a separate entry of the source. Marks after values point to notes of the source that are not given here.
# Columns and labels:
# [1] = target: T1, RARγ AF2 (Homo sapiens, UniProt P13631); details: retinoid activity, reporter cells; cited from earlier work; further: key: '+' = agonist; '(+)' = weak agonist; '−' = antagonist; '0' = absence of agonist and antagonist activities
# T1 construct: expressed in transfected cells
# T1 sequence (P13631 185-419 limits assumed): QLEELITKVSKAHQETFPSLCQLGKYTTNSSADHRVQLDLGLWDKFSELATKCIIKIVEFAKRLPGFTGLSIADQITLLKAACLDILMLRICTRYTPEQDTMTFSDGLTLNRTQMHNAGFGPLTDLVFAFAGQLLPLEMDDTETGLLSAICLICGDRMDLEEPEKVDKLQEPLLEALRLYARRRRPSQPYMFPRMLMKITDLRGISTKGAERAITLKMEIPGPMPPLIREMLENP
# [2] = target: T2, RXRα homodimer [(RXR)2] (Homo sapiens, UniProt P19793); details: retinoid activity, transient transfection; cited from earlier work; further: key: '+' = agonist; '(+)' = weak agonist; '−' = antagonist; '0' = absence of agonist and antagonist activities
# T2 construct: expressed in transfected cells
# T2 sequence (P19793 1-462): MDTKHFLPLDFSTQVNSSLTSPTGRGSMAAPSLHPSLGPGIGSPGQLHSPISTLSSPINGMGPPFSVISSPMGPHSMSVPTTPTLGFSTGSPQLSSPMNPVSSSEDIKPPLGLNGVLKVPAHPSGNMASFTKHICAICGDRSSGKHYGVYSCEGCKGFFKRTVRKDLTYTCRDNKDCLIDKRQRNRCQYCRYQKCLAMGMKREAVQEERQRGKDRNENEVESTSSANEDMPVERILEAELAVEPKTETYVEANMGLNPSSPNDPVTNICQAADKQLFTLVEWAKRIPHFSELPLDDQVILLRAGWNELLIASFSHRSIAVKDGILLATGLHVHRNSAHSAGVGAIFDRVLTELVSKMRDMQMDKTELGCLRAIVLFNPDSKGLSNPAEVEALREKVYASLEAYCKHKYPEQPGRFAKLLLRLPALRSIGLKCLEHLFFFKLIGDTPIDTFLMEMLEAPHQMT
# [3] = tested on: immature LC (Langerhans cells); test: Activation of immature LC: HLA-DR and CD86 expression by flow cytometry; type: cell-based, human; design: class II or CD86 upregulation on immature LC: dose or concentration left out as unconfirmed; details: for activation of immature LC (class II / CD86, DRhi-CD86hi) in the presence of TNFα: TNFα 1-10 ng/ml; for class II or CD86 upregulation on immature LC: in the absence or at low concentrations of TNFα
# Description: Immature LC were cultured with retinol or vehicle and/or TNFα for 40 h. Cells were washed and incubated with HLA-DR-FITC and CD86-PE or isotype controls for 15 min at 4° C. 10^4 events were then analyzed with a FACScalibur (Becton Dickinson) using CellQuest software (Becton Dickinson). % are given for DRhi CD86hi cells gated as indicated. Data are representative of three experiments on different donors.
# FIG. 3A: Day 6 immature LC were cultured for 40 h with TNFα and/or retinoids or vehicle as indicated. Cells were washed and stained with HLA-DR-FITC and CD86-PE or isotype controls for 15 min at 4° C. 10^4 events were then analyzed with a FACScalibur (Becton Dickinson) using CellQuest software (Becton Dickinson). Data are given for DRhi/CD86 hi cells gated as indicated, and are representative of 10 experiments on different donors.
# Percentages of DRhi/CD86 hi cells are represented and results are expressed as the mean±SD of at last three experiments on different donors.
# Flow Cytometry Analysis. 1×10^5 cells were incubated in 96-well plates (Becton Dickinson Labware, Franklin Lakes, N.J.) for 15 min at 4 ° C. in PBS, 2% human AB serum, and 0.01 M NaN3, with FITC-conjugated anti-DR (Immunotech, Marseille, France) and PE-conjugated CD86 (Pharmingen, San Diego, Calif.) at the appropriate concentration, or with control isotype-matched irrelevant mAbs at the same concentration. After washing, 10^4 events were analyzed with a FACScalibur (Becton Dickinson Immunocytometry Systems, Mountain View, Calif.) using CellQuest software.
# [4] = target: T3, RARα-RXRα heterodimer (Homo sapiens, UniProt P10276+P19793); details: retinoid activity, transient transfection; cited from earlier work; further: key: '+' = agonist; '(+)' = weak agonist; '−' = antagonist; '0' = absence of agonist and antagonist activities
# T3 construct: expressed in transfected cells
# T3 sequence (P10276 1-462): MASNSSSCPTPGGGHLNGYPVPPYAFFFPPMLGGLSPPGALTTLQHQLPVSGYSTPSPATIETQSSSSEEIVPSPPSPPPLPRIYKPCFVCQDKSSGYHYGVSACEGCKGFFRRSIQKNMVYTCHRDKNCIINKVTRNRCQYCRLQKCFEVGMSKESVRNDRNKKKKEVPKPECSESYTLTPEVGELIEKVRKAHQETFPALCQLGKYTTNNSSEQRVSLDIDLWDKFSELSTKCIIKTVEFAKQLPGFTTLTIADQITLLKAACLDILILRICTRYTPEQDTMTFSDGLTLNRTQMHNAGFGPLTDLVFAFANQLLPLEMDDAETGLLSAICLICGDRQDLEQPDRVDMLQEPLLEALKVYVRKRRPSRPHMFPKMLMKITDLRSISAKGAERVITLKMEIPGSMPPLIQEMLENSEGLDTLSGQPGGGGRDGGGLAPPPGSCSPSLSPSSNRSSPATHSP
# T3 sequence (P19793 1-462): T2 sequence (P19793 1-462)
# [5] = target: T4, RARα AF2 (Homo sapiens, UniProt P10276); details: retinoid activity, reporter cells; cited from earlier work; further: key: '+' = agonist; '(+)' = weak agonist; '−' = antagonist; '0' = absence of agonist and antagonist activities
# T4 construct: expressed in transfected cells
# T4 sequence (P10276 183-417 limits assumed): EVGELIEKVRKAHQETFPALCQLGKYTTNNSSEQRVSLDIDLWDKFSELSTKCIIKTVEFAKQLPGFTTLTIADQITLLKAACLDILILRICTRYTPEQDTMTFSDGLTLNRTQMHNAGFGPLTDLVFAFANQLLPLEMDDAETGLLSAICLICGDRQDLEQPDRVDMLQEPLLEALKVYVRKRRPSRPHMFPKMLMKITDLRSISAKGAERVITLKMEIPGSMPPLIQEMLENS
# [6] = tested on: immature LC (Langerhans cells); test: Apoptosis of immature LC, flow cytometry of PI stained nuclei (sub 2N particles) / annexin V; type: cell-based, human; details: for induction of apoptosis / death of immature LC by the substance on its own: no TNFα
# [7] = target: T5, RARβ AF2 (Homo sapiens, UniProt P10826); details: retinoid activity, reporter cells; cited from earlier work
# T5 construct: expressed in transfected cells
# T5 sequence (P10826 183-417 limits assumed): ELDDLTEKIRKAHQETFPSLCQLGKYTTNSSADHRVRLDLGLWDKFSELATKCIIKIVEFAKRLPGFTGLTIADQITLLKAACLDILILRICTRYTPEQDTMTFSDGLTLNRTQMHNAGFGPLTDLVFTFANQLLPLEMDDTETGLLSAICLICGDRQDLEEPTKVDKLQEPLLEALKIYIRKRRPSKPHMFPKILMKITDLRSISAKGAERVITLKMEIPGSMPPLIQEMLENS
# [8] = tested on: RXR AF2; details: retinoid activity, reporter cells; cited from earlier work
# [9] = tested on: NF-κB complexes; test: Electrophoretic mobility shift assay of nuclear NF-κB complexes in immature LC; type: cell-based, human; details: retinoid 1 μM 6 h, then TNFα 50 ng/ml 30 min; result in words
# [10] = tested on: T-cells stimulated by LC; type: cell-based, human
# [11] = in vitro; details: human
# [12] = 1 nM, two days in culture, mean ± SD
# [13] = 10 nM, two days in culture, mean ± SD
# [14] = 100 nM, two days in culture, mean ± SD
# [15] = 1 μM, two days in culture, mean ± SD
# [16] = Table 3C, retinoid 1 μM in medium, no inhibitor
SMILES,RARγ AF2 [1],(RXR)2 AF2 [2],"activation of immature LC (class II / CD86, DRhi-CD86hi) in the presence of TNFα ([3]; result in words)",RARα-RXR DR5 [4],RARα AF2 [5],"percentage of apoptotic (<2N) particles [6, 12]","percentage of apoptotic (<2N) particles [6, 13]",percentage of apoptotic (<2N) particles ([6]; 100 nM SR11237 + 1 nM ligand),percentage of apoptotic (<2N) particles ([6]; 100 nM SR11237 + 10 nM ligand),percentage of apoptotic (<2N) particles ([6]; 100 nM SR11237 + 100 nM ligand),percentage of apoptotic (<2N) particles ([6]; 100 nM SR11237 + 1 μM ligand),"percentage of apoptotic (<2N) particles [6, 14]","percentage of apoptotic (<2N) particles [6, 15]","percentage of apoptotic (<2N) particles [6, 16]",induction of apoptosis / death of immature LC by the substance on its own ([6]; result in words),RARβ AF2 [7],RXR AF2 [8],nuclear translocation / DNA-binding activity of NF-κB complexes with TNFα [9],class II or CD86 upregulation on immature LC [3],enhancement of antigen presentation to antigen-specific T-cells in synergy with TNFα [10],further results
"CC1(C)C(=O)C(C)(C)c2cc(C(=O)Nc3ccc(C(=O)O)cc3)ccc21 [Compound I, 4-[[(2,3-Dihydro-1,1,3,3-tetramethyl-2-oxo-1H-inden-5-yl)carbonyl]amino]benzoic acid]",0,0,upregulate,+,+,≦5%,≦5%,6 ± 3%,25 ± 10^(a) %,32 ± 7%,47 ± 10%,27 ± 9%,37 ± 7%,38 ± 8%,apoptosis was induced,0,0,synergize with TNFα,,,"percentage of apoptotic (<2N) particles ([6]; 50 nM, two days in culture, mean ± SD): 18 ± 3^(b) %; percentage of apoptotic (<2N) particles ([6]; Table 3C, Compound I 100 nM + SR11237 100 nM in medium, no inhibitor): 38 ± 5%"
"CC1=C(/C=C/C(C)=C/C=C/C(C)=C/CO)C(C)(C)CCC1 [Rol, retinol]",,,,,,≦5^(a) %,≦5%,,,,,≦5%,17±8%,17 ± 8%,increased,,,,did not significantly induce,,"minimum effective dose for significant LC activation [3]: 1 µM; synergy with IL-1β to activate LC ([3]; IL-1β 1-10 ng/ml, result in words): synergized with IL-1β; activation of immature LC (class II / CD86, DRhi-CD86hi) in the presence of TNFα ([3]; result in words, listed as Retinol): synergize with TNFα; also recorded: upregulate; activation of immature LC (class II / CD86, DRhi-CD86hi) in the presence of TNFα ([3]; result in words, listed as retinol): synergized with TNFα; allogeneic T-lymphocyte proliferation (MLR) [10]: increase alloreactive proliferative response; cytotoxicity at 2 days, 1 μM [11]: 20%; cytotoxicity at 3 days, 1 μM [11]: 40%"
"CC1(C)CCC(C)(C)c2cc(C3(c4ccc(C(=O)O)cc4)OCCO3)ccc21 [SR11237, 4-[2-(5,6,7,8-tetrahydro-5,5,8,8-tetramethyl-2-naphthalenyl)-1,3-dioxolan-2-yl]benzoic acid, reference compound]",0,+,also synergized with TNFα; also recorded: upregulate,0,0,≦5%,≦5%,,,,,≦5%,≦5%,,neither SR11237 (Table 3) nor BMS749 exhibited an apoptotic effect,0,+,synergize with TNFα,,synergized with TNFα,"induction of apoptosis / death of immature LC by the substance on its own ([6]; result in words, listed as SR1 1237): had no effects on its own; synergy with the pan-RXR agonist SR11237 to induce LC death ([6]; result in words): asynergistic effect on LC death induced by the selective RARα agonist"
"CC1(C)CC=C(c2cnc3ccccc3c2)c2cc(C(=O)Nc3ccc(C(=O)O)cc3)ccc21 [Compound II, 4-[[[5,6-Dihydro-5,5-dimethyl-8-(3-quinolinyl)-2-naphthalenyl]carbonyl]amino]benzoic acid]",0,0,,−,−^(a)(b),≦5%,≦5%,≦5%,≦5%,≦5%,≦5%,≦5%,≦5%,,did not induce,0,0,,,synergized with the RXR agonist (SR11237),"synergy with the RXR agonist SR11237 for TNFα-induced LC activation ([3]; result in words): synergized with the RXR agonist (SR11237); inhibition of retinoid-induced apoptosis / cell death of immature LC ([6]; result in words): inhibited retinoid-induced apoptosis; inhibition of retinoid-induced apoptosis / cell death of immature LC ([6]; result in words, listed as Compound H): inhibited"
"CC1=C(/C=C/C(C)=C/C=C/C(C)=C/C(=O)O)C(C)(C)CCC1 [tRA, all-trans retinoic acid, reference compound]",+,,synergize with TNFα; also recorded: upregulate,,+^(a),≦5%,≦5%,,,,,14 ± 6^(b) %,36 ± 10%,38 ± 10%,induced a similar dose- and time-dependent increase in death,+,0^(a),synergize with TNFα,did not significantly induce,,
